Measured values taken from patent US12071424B2, “IRE1 small molecule inhibitors” (Cornell University, priority 2017, dated 2024).
pEC50, pIC50: −log10 of the molar value.

Key:
IRE1a [1] = target: T1, IRE1a (Homo sapiens, UniProt O75460); test: In vitro FRET assay (IRE1a cleavage of XBP1 RNA probe); assay type: biochemical; conditions: 2 nM SignalChem IRE1a, tested as Formic Acid Salt (37: HCl Salt)
T1 construct: purchased SignalChem
Protocol: In vitro FRET assay was performed to evaluate the ability of select compounds to inhibit IRE1, the results of which are summarized in Table 3. To perform the in vitro FRET assay, 1× complete assay buffer (CAB: […], 50 mM sodium citrate pH 7.15, 1 mM magnesium acetate, 0.02% tween 20) was used to SignalChem IRE1a protein to a final concentration of 2 nM. Selected compounds were serially diluted with DMSO in a non-binding black 384-well plate for a total of 15 ul in each well. 2 ul of the serially diluted compound or DMSO control were then added to new wells containing 98 ul of 1× CAB, for a total volume of 100 ul, 10 ul of which were then transferred to wells of a new plate. 5 ul of the diluted IRE1a was then added to each well. 5 ul of a […] XBP1 RNA probe was then added to each well. Fluorescence was then read over 30 minutes in kinetic mode (485/515 nm).
Two RNA probes were used, XBP1 wildtype (SEQ ID NO: 2) which is able to be spliced by active IRE1a or XBP1 mutant (SEQ ID NO: 3) which is unable to be spliced. Each probe contained a 5′ 6-FAM modification and a 3′ IOWA black FQ modification. […]

IRE1a [2] = test: IRE1a Endoribonuclease Nanoluciferase Assay (XBP1 luciferase reporter in 293T cells); assay type: cell-based, human; conditions: Homo sapiens, HEK-293T, ER stressor, tested as Formic Acid Salt (37: HCl Salt)
Protocol: Compounds disclosed herein assessed for disruption of IRE1 signaling using a IRE1a Endoribonuclease Nanoluciferase Assay. Briefly, 25×10^5 293T cells were seeded in a 10 cm^2 tissue culture plate. About 24 hours later, the cells were transfected with Effectene. In a 15 mL tube, the following was added: 2 ug XBP1 luciferase reporter plasmid (PGK-Luc2-P2A-XBP1u-Nanoluciferase-Pest); 300 ul EC buffer; and 16 ul Enhancer, followed by incubation at room temp for 5 minutes. Next, 60 ul Effectene (Qiagen 301427) was added, followed by incubation at room temperature for 10 minutes. 2.6 mL cDMEM media was added. Old media was aspirated from the cells, followed by addition of 7 mL fresh media. Full transfection mixture was added dropwise to cells. Cells were incubated for 6 hours, followed by trypsinization, centrifugation and resuspension in 11 mL fresh cDMEM media. 100 uL of cells were plated per a well in a 96 well plate. A day later, ER stressors of choice +/−inhibitors were added. To harvest, media was aspirated from cells completely, then 50 uL 1× passive lysis buffer (Promega: E1941) was added per well and put on shaker (300 rpm) for 30 minutes at room temperature. Cells were centrifuged, and 15 uL sample per well was added to a new, opaque white 384 well plate (Corning 3570). 15 uL OneGlo (nanoluciferase kit, Promega N1630) was added. Plates were spun down, placed on shaker (300 rpm) for 10 minutes. Plates were read on luminometer, 1000 ms integration time per well. 15 uL Stop an Glo (nanoluciferase kit) was added. Plates were spun down, placed on shaker (300 rpm) for 10 minutes. Plates were read on luminometer, 1000 ms second integration time per well. Recordings are provided below in Table 4.

T1 sequence (O75460 19-977): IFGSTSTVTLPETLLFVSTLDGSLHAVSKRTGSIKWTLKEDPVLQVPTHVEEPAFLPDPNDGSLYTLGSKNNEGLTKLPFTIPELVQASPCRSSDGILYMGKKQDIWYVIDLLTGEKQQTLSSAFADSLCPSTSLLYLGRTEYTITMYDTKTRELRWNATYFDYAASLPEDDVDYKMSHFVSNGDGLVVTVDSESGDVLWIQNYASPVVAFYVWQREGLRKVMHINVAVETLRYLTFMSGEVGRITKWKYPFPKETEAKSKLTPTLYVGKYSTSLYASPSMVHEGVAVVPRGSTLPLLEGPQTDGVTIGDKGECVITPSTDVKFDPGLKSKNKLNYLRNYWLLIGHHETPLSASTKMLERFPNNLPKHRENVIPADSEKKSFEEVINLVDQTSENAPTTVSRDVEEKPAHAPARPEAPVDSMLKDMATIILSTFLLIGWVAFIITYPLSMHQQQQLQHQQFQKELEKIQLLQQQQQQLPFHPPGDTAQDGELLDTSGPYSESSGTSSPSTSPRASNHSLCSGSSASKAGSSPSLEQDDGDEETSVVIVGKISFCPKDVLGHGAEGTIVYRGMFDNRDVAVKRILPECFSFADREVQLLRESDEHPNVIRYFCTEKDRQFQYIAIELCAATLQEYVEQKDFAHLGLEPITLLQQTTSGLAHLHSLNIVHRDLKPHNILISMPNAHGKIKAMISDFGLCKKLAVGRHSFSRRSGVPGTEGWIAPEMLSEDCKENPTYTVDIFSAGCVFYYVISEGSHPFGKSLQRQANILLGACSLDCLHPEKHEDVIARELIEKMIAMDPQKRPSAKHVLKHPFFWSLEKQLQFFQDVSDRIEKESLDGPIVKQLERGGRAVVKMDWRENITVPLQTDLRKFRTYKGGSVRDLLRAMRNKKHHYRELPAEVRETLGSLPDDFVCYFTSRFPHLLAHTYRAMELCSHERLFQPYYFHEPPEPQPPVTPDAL

pIC50 (IRE1a [1]) | pEC50 (IRE1a [2]) | SMILES
≥ 8.30 | ≥ 8.30 | CCc1cc(-c2ccc(NS(=O)(=O)c3ccccc3Cl)nc2C)cc2cnc(NC3CCC(N(C)C)C[C@@H]3F)nc12 (stereo in doubt) [Compound 151, 2-chloro-N-(5-(2-(((1R,2S,4R)-4-(dimethylamino)-2-fluorocyclohexyl)amino)-8-ethylquinazolin-6-yl)-6-methylpyridin-2-yl)benzenesulfonamide]
≥ 8.30 | ≥ 8.30 | N[C@H]1CC[C@H](Nc2ncc3cc(-c4ccc(NS(=O)(=O)c5ccccc5Cl)cc4)ccc3n2)CC1 [Compound 26, N-(4-(2-(((1r,4r)-4-aminocyclohexyl)amino)quinazolin-6-yl)phenyl)-2-chlorobenzene-sulfonamide]
≥ 8.30 | ≥ 8.30 | CCc1cc(-c2cc(NS(=O)(=O)c3ccccc3Cl)no2)cc2cnc(N[C@H]3CC[C@H](N)CC3)nc12 [Compound 44, N-(5-(2-(((1r,4r)-4-aminocyclohexyl)amino)-8-ethylquinazolin-6-yl)isoxazol-3-yl)-2-chlorobenzene-sulfonamide]
≥ 8.30 | 7.30 to 8.30 | CCCc1cc(-c2cc(NS(=O)(=O)c3ccccc3Cl)nn2C)cc2cnc(N[C@H]3CC[C@H](N)CC3)nc12 [Compound 47, N-(5-(2-(((1r,4r)-4-aminocyclohexyl)amino)-8-propylquinazolin-6-yl)-1-methyl-1H-pyrazol-3-yl)-2-chlorobenzene-sulfonamide]
≥ 8.30 | 7.30 to 8.30 | N[C@H]1CC[C@H](Nc2ncc3cc(-c4ccc(NS(=O)(=O)c5ccccc5Cl)cc4F)ccc3n2)CC1 [Compound 48, N-(4-(2-(((1r,4r)-4-amiocyclohexyl)amino)quinazolin-6-yl)-3-fluorophenyl)-2-chlorobenzene-sulfonamide]
≥ 8.30 | 7.00 to 7.30 | N[C@H]1CC[C@H](Nc2ncc3cc(-c4ncc(NS(=O)(=O)c5ccccc5Cl)cc4F)ccc3n2)CC1 [Compound 51, N-(6-(2-(((1r,4r)-4-aminocyclohexyl)amino)quinazolin-6-yl)-5-fluoropyridin-3-yl)-2-chlorobenzene-sulfonamide]
≥ 8.30 | ≥ 8.30 | N[C@H]1CC[C@H](Nc2ncc3cc(-c4cc(F)c(NS(=O)(=O)c5ccccc5Cl)cc4F)ccc3n2)CC1 [Compound 53, N-(4-(2-(((1r,4r)-4-aminocyclohexyl)amino)quinazolin-6-yl)-2,5-difluorophenyl)-2-chlorobenzene-sulfonamide]
≥ 8.30 | 7.30 to 8.30 | N[C@H]1CC[C@H](Nc2ncc3cc(-c4cnc(NS(=O)(=O)c5ccccc5Cl)c(F)c4)ccc3n2)CC1 [Compound 54, N-(5-(2-(((1r,4r)-4-aminocyclohexyl)amino)quinazolin-6-yl)-3-fluoropyridin-2-yl)-2-chlorobenzene-sulfonamide]
≥ 8.30 | ≥ 8.30 | N[C@H]1CC[C@H](Nc2ncc3cc(-c4ccc(NS(=O)(=O)c5ccccc5Cl)c(F)c4F)ccc3n2)CC1 [Compound 56, N-(4-(2-(((1r,4r)-4-aminocyclohexyl)amino)quinazolin-6-yl)-2,3-difluorophenyl)-chlorobenzene-sulfonamide]
≥ 8.30 | ≥ 8.30 | N[C@H]1CC[C@H](Nc2cc3ccc(-c4ccc(NS(=O)(=O)c5ccccc5Cl)c(F)c4)cc3cn2)CC1 [Compound 57, N-(4-(3-(((1r,4r)-4-aminocyclohexyl)amino)isoquinolin-7-yl)-2-fluorophenyl)-2-chlorobenzene-sulfonamide]
 | ≥ 8.30 | CCc1cc(-c2ccc(NS(=O)(=O)c3ccccc3Cl)c(F)c2)cc2cnc(N[C@H]3CC[C@H](NC(=O)[C@@H](N)C(C)C)CC3)nc12 [Compound 58, (S)-2-amino-N-((1r,4S)-4-((6-(4-((2-chlorophenyl)sulfonamido)-3-fluorophenyl)-8-ethylquinazolin-2-yl)amino)cyclohexyl)-3-methylbutanamide]
7.30 to 8.30 | 7.00 to 7.30 | CCc1cc(-c2ccc(NS(=O)(=O)c3ccccc3Cl)c(F)c2)cc2cnc(N[C@H]3CC[C@H](NC(C)=O)CC3)nc12 [Compound 59]
≥ 8.30 | ≥ 8.30 | CCc1cc(-c2ccc(NS(=O)(=O)c3ccccc3Cl)c(F)c2)cc2cnc(N[C@H]3CC[C@H](NC)CC3)nc12 [Compound 60, 2-chloro-N-(4-(8-ethyl-2-(((1r,4r)-4-(methylamino)cyclohexyl)amino)quinazolin-6-yl)-2-fluorophenyl) benzene sulfonamide]
≥ 8.30 | ≥ 8.30 | CCc1cc(-c2ccc(NS(=O)(=O)c3ccccc3Cl)nn2)cc2cnc(N[C@H]3CC[C@H](NC)CC3)nc12 [Compound 61, 2-chloro-N-(6-(8-ethyl-2-(((1r,4r)-4-(methylamino)cyclohexyl)amino)quinazolin-6-yl)pyridazin-3-yl)benzene-sulfonamide]
≥ 8.30 | 7.30 to 8.30 | N[C@H]1CC[C@H](Nc2ncc3cc(-c4c(F)cc(NS(=O)(=O)c5ccccc5Cl)cc4F)ccc3n2)CC1 [Compound 62, N-(4-(2-(((1r,4r)-4-aminocyclohexyl)amino)quinazolin-6-yl)-3,5-difluorophenyl)-chlorobenzene-sulfonamide]
≥ 8.30 | ≥ 8.30 | CCc1cc(-c2ccc(NS(=O)(=O)c3ccccc3Cl)nn2)cc2cnc(N[C@H]3CC[C@H](N(C)C)CC3)nc12 [Compound 64]
≥ 8.30 | 7.00 to 7.30 | CCc1cc(-c2cc(OC)c(NS(=O)(=O)c3ccccc3Cl)nn2)cc2cnc(N[C@H]3CC[C@H](N)CC3)nc12 [Compound 66, N-(6-(2-(((1r,4r)-4-aminocyclohexyl)amino)-8-ethylquinazolin-6-yl)-4-methoxypyridazin-3-yl)-2-chlorobenzene-sulfonamide]
≥ 8.30 | 7.00 to 7.30 | Cc1nc(NS(=O)(=O)c2ccccc2Cl)ncc1-c1ccc2nc(N[C@H]3CC[C@H](N)CC3)ncc2c1 [Compound 68, N-(5-(2-(((1r,4r)-4-aminocyclohexyl)amino)quinazolin-6-yl)-4-methylpyrimidin-2-yl)-2-chlorobenzene-sulfonamide]
 | ≥ 8.30 | CCc1cc(-c2ccc(NS(=O)(=O)c3ccccc3Cl)c(F)c2)cc2cnc(N[C@@H]3CC[C@H](N)[C@H](C)C3)nc12 [Compound 70, N-(4-(2-(((1R,3R,4S)-4-amino-3-methylcyclohexyl)amino)-8-ethylquinazolin-6-yl)-2-fluorophenyl)-2-chlorobenzene-sulfonamide]
≥ 8.30 | 5.00 to 7.00 | CCc1cc(-c2ccc(NS(=O)(=O)c3ccccc3Cl)c(F)c2)cc2cnc(N[C@@H]3CCC[C@H](N)C3)nc12 [Compound 72, N-(4-(2-(((1R,3S)-3-aminocyclohexyl)amino)-8-ethylquinazolin-6-yl)-2-fluorophenyl)-2-chlorobenzene-sulfonamide]
 | ≥ 8.30 | CCc1cc(-c2ccc(NS(=O)(=O)c3ccccc3Cl)c(F)c2)cc2cnc(N[C@H]3CCCNC3)nc12 [Compound 73, (S)-2-chloro-N-(4-(8-ethyl-2-(piperidin-3-ylamino)quinazolin-6-yl)-2-fluoropbenyl) benzenesulfon-amide]
≥ 8.30 | ≥ 8.30 | CCc1cc(-c2ccc(NS(=O)(=O)c3ccccc3Cl)c(F)c2)cc2cnc(N[C@@H]3CC[C@@H](N)[C@H](C)C3)nc12 [Compound 74, N-(4-(2-(((1R,3R,4R)-4-amino-3-methylcyclohexyl)amino)-8-ethylquinazolin-6-yl)-2-fluorophenyl)-2-chlorobenzene-sulfonamide]
≥ 8.30 | 5.00 to 7.00 | N[C@H]1CCC[C@@H](Nc2ncc3cc(-c4ccc(NS(=O)(=O)c5ccccc5Cl)c(F)c4)ccc3n2)C1 [Compound 75, N-(4-(2-(((1R,3S)-3-aminocyclohexyl)amino)quinazolin-6-yl)-2-fluorophenyl)-2-chlorobenzene-sulfonamide]
 | 5.00 to 7.00 | N[C@H]1CC[C@@H](Nc2ncc3cc(-c4ccc(NS(=O)(=O)c5ccccc5Cl)c(F)c4)ccc3n2)C1 [Compound 80, N-(4-(2-(((1R,3S)-3-aminocyclopentyl)amino)quinazolin-6-yl)-2-fluorophenyl)-2-chlorobenzene-sulfonamide]
